Some test systems named below: BT-549 breast; 786-0 renal; A549 NSCLC; HOP-92 NSCLC; CAKI-1 renal; SF-268 CNS; U251 CNS; NCI-H23 lung; LOX IMVI melanoma; SR leukemia.
What all share (assay): DTP human tumour cell line panel, 48 h

Structures are written as SMILES. Values joined by “and” are separate entries in the source; they are usually repeats but may differ in a detail not shown here. Identical values can stand only once.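 Dose response: 5 concentrations. Exposure: 48 h. Format: 96-well plates. Endpoint: linear interpolation; highest concentration if not reached. The concentration for 50% growth inhibition is given as GI50. TGI marks complete inhibition of growth.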

What is called GI50 is the concentration giving 50% growth inhibition. For orientation: TGI means the concentration giving total growth inhibition. For `Cc1ccc(-c2cc(/C=N/O)on2)cc1`, the GI50 with BT-549 breast is 49.5 µM; in the test with 786-0 renal, 50.4 µM; with A549 NSCLC it was 51 µM; in the test with HOP-92 NSCLC, 47.6 µM; in the test on CAKI-1 renal, 43.9 µM; with SF-268 CNS, more than 100 µM. For the same compound, the GI50 in the test with U251 CNS was 54.3 µM; with NCI-H23 lung it was 73.1 µM; with LOX IMVI melanoma it was 53.3 µM. Moreover, the concentration for total growth inhibition (TGI) in the test on BT-549 breast, in the test on 786-0 renal, in the test with A549 NSCLC, in the test on HOP-92 NSCLC, in the test with CAKI-1 renal and with SF-268 CNS was more than 100 µM throughout. The TGI in the test with U251 CNS, in the test on NCI-H23 lung and with LOX IMVI melanoma was more than 100 µM in each case.
For `C=C(C)[C@@H]1CC[C@]2(C)[C@H](C=CC3=C4C[C@@](C)(CO)CC[C@]4(C)CC[C@]32C)[C@@]1(C)CCCN`, the GI50 in the test on BT-549 breast was 1.63 µM; in the test on 786-0 renal it was 1.68 µM; with A549 NSCLC, 1.6 µM; with HOP-92 NSCLC, 1.48 µM; in the test with CAKI-1 renal, 1.52 µM; with SF-268 CNS, 1.61 µM. Also, the GI50 in the test with U251 CNS is 1.64 µM; in the test on NCI-H23 lung, 1.77 µM; with LOX IMVI melanoma, 1.37 µM. The TGI in the test with BT-549 breast is 3.07 µM; in the test on 786-0 renal, 3.44 µM; in the test with A549 NSCLC, 3.18 µM; with HOP-92 NSCLC, 3.21 µM; with CAKI-1 renal it was 2.85 µM; in the test with SF-268 CNS it was 3.25 µM. Moreover, the TGI amounted to 3.32 µM in the test on U251 CNS, 3.32 µM in the test on NCI-H23 lung and 2.7 µM in the test with LOX IMVI melanoma.
In the case of `O=P1(O)c2ccccc2CS(=O)(=O)Cc2ccccc21`, the TGI with BT-549 breast, with 786-0 renal, with A549 NSCLC, in the test with HOP-92 NSCLC, in the test with CAKI-1 renal and with SF-268 CNS was more than 100 µM throughout. The TGI with U251 CNS, with NCI-H23 lung and with LOX IMVI melanoma was more than 100 µM throughout.
Consider `N#CC(C#N)=Cc1ccc(-c2ccc(-c3nc4ccccc4o3)cc2)o1`, for which the GI50 in the test on BT-549 breast is more than 100 µM; in the test with 786-0 renal, 15.8 µM; with A549 NSCLC, 28.2 µM; with CAKI-1 renal it was 40 µM; in the test with SF-268 CNS, 52 µM; in the test on U251 CNS, 21.7 µM. The GI50 with NCI-H23 lung is 27.2 µM; in the test on LOX IMVI melanoma, 16.6 µM. Besides, the TGI was more than 100 µM in the test with BT-549 breast; 34 µM with 786-0 renal; more than 100 µM with A549 NSCLC; more than 100 µM in the test with CAKI-1 renal; more than 100 µM with SF-268 CNS; 52.5 µM with U251 CNS. Also, the TGI in the test on NCI-H23 lung was 93.8 µM; with LOX IMVI melanoma it was 44.8 µM.
On to `N#Cc1c(Oc2ccc(F)c(NC(=O)Cc3cccc(C(F)(F)F)c3)c2)ccc2nc(NC(=O)C3CC3)sc12`, for which the GI50 was 2.71 µM in the test with BT-549 breast; 1.33 µM with 786-0 renal; 0.703 µM in the test on A549 NSCLC; 0.278 µM in the test with HOP-92 NSCLC; 0.672 µM in the test with SR leukemia; 0.744 µM in the test on CAKI-1 renal. The GI50 was 1.35 µM in the test on SF-268 CNS, 0.491 µM in the test on U251 CNS and 0.714 µM with NCI-H23 lung. Further, the concentration for total growth inhibition (TGI) in the test with BT-549 breast is more than 100 µM; in the test with 786-0 renal, more than 100 µM; in the test with A549 NSCLC, more than 100 µM; in the test on HOP-92 NSCLC, 2.19 µM; in the test with SR leukemia it was more than 100 µM; in the test on CAKI-1 renal, more than 100 µM. For the same compound, the TGI with SF-268 CNS, in the test on U251 CNS and in the test with NCI-H23 lung was more than 100 µM in each case.
For `O=C(NO)c1cnc(N2CCN(S(=O)(=O)c3ccc4ccccc4c3)CC2)nc1`, the GI50 in the test with BT-549 breast was 0.803 µM; in the test with 786-0 renal, 0.193 µM; with A549 NSCLC, 0.0459 µM; in the test with HOP-92 NSCLC, 0.0202 µM; in the test with SR leukemia, 0.0387 µM; in the test with CAKI-1 renal, 0.114 µM. Also, the GI50 in the test with SF-268 CNS is 0.169 µM; in the test with U251 CNS it was 0.0654 µM; in the test with NCI-H23 lung, 0.103 µM. For the same compound, the TGI with BT-549 breast was 53.4 µM; in the test on 786-0 renal, 2.83 µM; in the test on A549 NSCLC, 0.37 µM; in the test with HOP-92 NSCLC, 0.0857 µM; in the test on SR leukemia, more than 90.7 µM; in the test on CAKI-1 renal, 0.328 µM. The TGI worked out at 1.3 µM in the test on SF-268 CNS, 0.298 µM in the test on U251 CNS and 0.897 µM with NCI-H23 lung.
With `CC(C)N(C[C@H]1O[C@@H](n2cnc3c(N)ncnc32)[C@H](O)[C@@H]1O)C1CC(CCc2nc3ccc(C(C)(C)C)cc3[nH]2)C1` (stereo not given in full), the GI50 was more than 60.5 µM with BT-549 breast; more than 100 µM with 786-0 renal; more than 100 µM with A549 NSCLC; 31.4 µM in the test with HOP-92 NSCLC; more than 100 µM in the test on CAKI-1 renal; more than 100 µM with SF-268 CNS. For the same compound, the GI50 with U251 CNS was more than 100 µM; in the test with NCI-H23 lung it was more than 100 µM; in the test on LOX IMVI melanoma, more than 71.5 µM. For the same compound, the TGI in the test on BT-549 breast, in the test on 786-0 renal, with A549 NSCLC, in the test on HOP-92 NSCLC, in the test with CAKI-1 renal and with SF-268 CNS was more than 100 µM throughout. The TGI in the test with U251 CNS, in the test on NCI-H23 lung and with LOX IMVI melanoma was more than 100 µM in each case.
As for `Cc1sc(/N=C2/NC(=O)CS2)nc1-c1nc(/N=C2/NC(=O)CS2)sc1C`, the GI50 with BT-549 breast was more than 50 µM; in the test with 786-0 renal, more than 50 µM; in the test on A549 NSCLC, more than 50 µM; in the test with SR leukemia it was 24.9 µM; in the test with CAKI-1 renal, more than 50 µM; with SF-268 CNS it was 36.4 µM. In addition, the GI50 with U251 CNS, in the test with NCI-H23 lung and with LOX IMVI melanoma was more than 50 µM each time. The total growth inhibition concentration (TGI) in the test on BT-549 breast, in the test on 786-0 renal, in the test on A549 NSCLC, with SR leukemia, with CAKI-1 renal and with SF-268 CNS was more than 50 µM each time. The TGI with U251 CNS, in the test on NCI-H23 lung and in the test with LOX IMVI melanoma was more than 50 µM throughout.
For `NC(=O)NC(=O)C1CCCCC1C(=O)O` (stereo not given), the TGI with BT-549 breast, in the test with 786-0 renal, in the test on A549 NSCLC, with HOP-92 NSCLC, with CAKI-1 renal and with SF-268 CNS was more than 100 µM throughout. Also, the TGI in the test on U251 CNS, in the test with NCI-H23 lung and in the test on LOX IMVI melanoma was more than 100 µM throughout.
As to `O=C1c2ccccc2C(=O)c2c(NC(=O)c3ccc4c5c(ncnc35)-c3ccccc3C4=O)cccc21`, the TGI in the test on BT-549 breast is more than 100 µM; in the test with 786-0 renal, 84.7 µM; with A549 NSCLC it was more than 100 µM; in the test with HOP-92 NSCLC it was more than 100 µM; with SR leukemia, more than 100 µM; in the test with CAKI-1 renal, more than 100 µM. The TGI with SF-268 CNS, in the test with U251 CNS and with NCI-H23 lung was more than 100 µM each time.
On to `CN(NC(=O)CC(=O)NN(C)C(=S)c1ccc(Cl)cc1)C(=S)c1ccc(Cl)cc1`, for which the GI50 is 12.9 µM with BT-549 breast; 24.6 µM in the test on 786-0 renal; 3.86 µM in the test with A549 NSCLC; 13.6 µM in the test on CAKI-1 renal; 19.6 µM in the test on SF-268 CNS; 21.3 µM with U251 CNS. The GI50 in the test on NCI-H23 lung was 12.1 µM; in the test with LOX IMVI melanoma, 20.2 µM. The TGI is 53 µM in the test on BT-549 breast; more than 100 µM in the test on 786-0 renal; 71.7 µM with A549 NSCLC; 9.05 µM in the test on HOP-92 NSCLC; more than 100 µM in the test with CAKI-1 renal; more than 100 µM with SF-268 CNS. Moreover, the TGI in the test on U251 CNS was more than 100 µM; in the test with NCI-H23 lung, 46.2 µM; in the test on LOX IMVI melanoma, more than 100 µM.
With `CCNCCNc1cc(-c2cccc(C(F)(F)F)c2)c(C#N)c2nc3ccccc3n12`, the GI50 is 2.06 µM with BT-549 breast; 1.02 µM in the test with 786-0 renal; 1.48 µM with A549 NSCLC; 1.69 µM with HOP-92 NSCLC; 1.54 µM in the test on CAKI-1 renal; 1.57 µM with SF-268 CNS. Besides, the GI50 with U251 CNS is 1.67 µM; in the test with NCI-H23 lung, 1.75 µM; with LOX IMVI melanoma, 0.299 µM. Further, the TGI in the test on BT-549 breast was found to be 3.75 µM; in the test with 786-0 renal it was 2.33 µM; in the test on A549 NSCLC, 3 µM; with HOP-92 NSCLC, 3.54 µM; in the test on CAKI-1 renal it was 3 µM; in the test with SF-268 CNS it was 3.12 µM. The TGI in the test on U251 CNS stood at 3.08 µM; with NCI-H23 lung, 3.53 µM; in the test with LOX IMVI melanoma it was 1.07 µM.
For `CC[C@@]1(OC(=O)CN)C(=O)OCc2c1cc1n(c2=O)Cc2cc3c(N)c4c(cc3nc2-1)OCO4`, the GI50 in the test on BT-549 breast was 0.24 µM; in the test with 786-0 renal it was less than 0.0001 µM; in the test on A549 NSCLC, 0.000195 µM; in the test on SR leukemia, less than 0.0001 µM; in the test with CAKI-1 renal it was less than 0.0001 µM; in the test with SF-268 CNS, less than 0.0001 µM. In addition, the concentration for 50% growth inhibition (GI50) with U251 CNS, in the test on NCI-H23 lung and in the test on LOX IMVI melanoma was less than 0.0001 µM each time. The TGI in the test on 786-0 renal was 0.0093 µM; in the test with A549 NSCLC it was 0.233 µM and 1.01 µM; in the test on SR leukemia, 0.159 µM; in the test on SF-268 CNS it was 0.125 µM and 0.183 µM; in the test with U251 CNS, 0.0186 µM and 0.0571 µM.

(Values after PubChem BioAssay (NCI).)
